Consider 1 compound from ChEMBL document CHEMBL2073796, “Multidrug resistance protein 2 (MRP2) transports HIV protease inhibitors, and transport can be enhanced by other drugs” (AIDS, 2002).

Structures are written as SMILES.

The data set deals with ATP-binding cassette sub-family C member 2 (Homo sapiens, UniProt Q92887). The experiment in a line: TP_TRANSPORTER: transepithelial transport (basal to apical) in MRP2-expressing MDCKII cells. To be noted: dog, mdck-ii. It counts as functional, cell-based.
ATP-binding cassette sub-family C member 2, sequence (Q92887 whole entry): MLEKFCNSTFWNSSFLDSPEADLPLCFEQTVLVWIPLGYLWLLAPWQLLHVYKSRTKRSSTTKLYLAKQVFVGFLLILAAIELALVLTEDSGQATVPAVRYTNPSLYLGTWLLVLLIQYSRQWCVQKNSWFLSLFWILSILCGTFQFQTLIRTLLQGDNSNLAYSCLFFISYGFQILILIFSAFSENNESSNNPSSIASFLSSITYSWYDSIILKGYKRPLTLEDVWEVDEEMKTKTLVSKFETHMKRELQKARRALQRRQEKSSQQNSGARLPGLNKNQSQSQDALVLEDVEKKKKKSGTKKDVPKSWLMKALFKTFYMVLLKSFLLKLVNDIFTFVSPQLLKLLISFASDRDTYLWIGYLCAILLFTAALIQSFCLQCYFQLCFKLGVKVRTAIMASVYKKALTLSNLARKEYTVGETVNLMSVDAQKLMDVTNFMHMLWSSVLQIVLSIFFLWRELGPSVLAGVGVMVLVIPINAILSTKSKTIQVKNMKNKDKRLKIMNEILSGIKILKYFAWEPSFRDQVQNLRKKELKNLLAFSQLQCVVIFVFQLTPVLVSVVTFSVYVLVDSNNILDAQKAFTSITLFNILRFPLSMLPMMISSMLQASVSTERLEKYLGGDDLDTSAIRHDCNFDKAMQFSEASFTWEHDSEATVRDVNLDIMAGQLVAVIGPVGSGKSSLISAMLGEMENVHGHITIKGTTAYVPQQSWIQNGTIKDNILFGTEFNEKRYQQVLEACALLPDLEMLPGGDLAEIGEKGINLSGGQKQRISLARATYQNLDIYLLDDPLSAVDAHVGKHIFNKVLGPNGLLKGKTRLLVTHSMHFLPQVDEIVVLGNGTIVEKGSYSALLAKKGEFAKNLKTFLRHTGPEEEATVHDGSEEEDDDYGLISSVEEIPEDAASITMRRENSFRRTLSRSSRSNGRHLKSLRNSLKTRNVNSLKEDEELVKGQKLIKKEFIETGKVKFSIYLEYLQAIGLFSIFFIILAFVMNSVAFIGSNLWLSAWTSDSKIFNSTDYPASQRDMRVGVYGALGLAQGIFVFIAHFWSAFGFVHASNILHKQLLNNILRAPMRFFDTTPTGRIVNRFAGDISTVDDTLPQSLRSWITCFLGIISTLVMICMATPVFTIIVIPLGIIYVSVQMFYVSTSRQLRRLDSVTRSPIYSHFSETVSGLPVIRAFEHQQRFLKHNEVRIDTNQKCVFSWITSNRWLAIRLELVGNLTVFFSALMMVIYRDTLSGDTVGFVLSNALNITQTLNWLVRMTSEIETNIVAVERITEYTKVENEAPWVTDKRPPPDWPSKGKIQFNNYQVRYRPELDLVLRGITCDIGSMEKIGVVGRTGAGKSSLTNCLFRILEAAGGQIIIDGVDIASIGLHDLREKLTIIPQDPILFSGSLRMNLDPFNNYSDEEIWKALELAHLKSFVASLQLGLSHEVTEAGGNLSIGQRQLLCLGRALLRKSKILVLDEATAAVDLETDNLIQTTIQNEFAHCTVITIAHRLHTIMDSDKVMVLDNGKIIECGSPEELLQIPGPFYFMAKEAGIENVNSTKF

Regarding `CC(C)(C)NC(=O)[C@@H]1CN(Cc2cccnc2)CCN1C[C@@H](O)C[C@@H](Cc1ccccc1)C(=O)N[C@H]1c2ccccc2C[C@H]1O.O`, the Activity entry was “substrate [+]”.
